What was measured:
[1] = tested on: KRAS G12S mutant A549 cells; assay: Proliferation inhibition of A549 cells, 3D CellTiter-Glo assay; format: cell-based; conditions: Homo sapiens, A549, 120 h, read-out: A549 IC50/nM
Experimental: A549 cells (Nanjing Kebai Biotechnology Co., Ltd., catalog number CBP60084, adherent, culture medium (F12K Nutrient Mixture+10%FBS (GIBCO, Cat#10091-148) at 37°C, 5%CO2, and 95% humidity.
3D Cell Viability Assay: Cells in the logarithmic growth phase were harvested and counted using a platelet counter. Cell viability was assessed using the trypan blue exclusion method to ensure a viability of over 90%. The 3D cell culture medium was prepared by adding 1% MC (methylcellulose, Sigma, Cat#M0512) F-12K medium and 10% FBS. The cell concentration was adjusted to approximately 7407 cells/mL using the 3D medium, and the methylcellulose (MC) content was set to 0.65%. Then, 135 µL of cell suspension was added to each 96-well clear, flat-bottomed, black-walled plate (Greiner, Cat#655096). The cells in the 96-well plates were cultured overnight at 37°C with 5% CO2.
Drug preparation for IC50 assay: A 10-fold drug solution was prepared using culture medium. […] of the drug solution was added to each well of a 96-well plate seeded with cells to achieve a working concentration of up to 10 µM, with a 3× dilution, and 9 concentrations. 2 replicate wells for each drug concentration were set. The cells in the drug-treated 96-well plates were cultured at 37°C and 5% CO^2 for additional5 days, then CTG assay (CellTiter-Glo® Luminescent Cell Viability Assay (Promega, Cat#G7573)) were performed.
The cell plate was equilibrated to room temperature for 30 minutes and the CTG reagent was thawed. 75 µL of CTG solution was added to each well for detection, and the plate was shaken on an orbital shaker for 5 minutes to lyse the cells. The cell plate was placed at room temperature for 25 minutes to stabilize the cryo-luminescence signal and the cryo-luminescence value was read (EnVision® multi-plate reader, PerkinElmer#2105).
Data was analyzed using GraphPad Prism software. The dose-response-inhibition equation was used to fit the data to obtain the dose-response curve, and the IC50 value (nM) was calculated accordingly. [formula]

[2] = tested on: KRAS G12D mutant AGS cells; assay: Proliferation inhibition of AGS cells, CellTiter-Glo assay; format: cell-based, human; conditions: Homo sapiens, AGS, 72 h, 3 days, CTG; read-out: AGS IC50/nM
Procedure, shortened: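 AGS cells at 1500 cells/well in F12K + 10% FBS were exposed for 3 days at 37°C to nine 3-fold dilutions from 10 µM top concentration, in duplicate. Viability read by CellTiter-Glo luminescence; IC50 (nM) from dose-response-inhibition fitting.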

[3] = tested on: KRAS G12V mutant NCI-H727 cells; assay: Proliferation inhibition of NCI-H727 cells, 3D CellTiter-Glo assay (Method B); format: cell-based, human; conditions: Homo sapiens, NCI-H727, 120 h, Method B; 3D culture with 0.65% methylcellulose, 5 days, CTG; read-out: NCI-H727 IC50/nM
Procedure, shortened: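 Cells grown in 3D medium (RPMI-1640, 10% FBS, 0.65% methylcellulose) overnight, then treated 5 days at 37 °C, 5% CO2 with 9 threefold dilutions from 10 µM top working concentration, duplicate wells. CellTiter-Glo luminescence read; IC50 (nM) fitted by dose-response-inhibition equation.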

Pharmacokinetics in mice = conditions: mouse, po
Experimental: Male CD-1 mice, aged 6-8 weeks, were purchased from Zhejiang Vital River Laboratory Animal Co., Ltd.
For the PO administration group, compounds were formulated in 0.5% Tween 80 and 99.5% (0.5%MC (400cp)) vehicle or 0.5%MC (400cp) vehicle to a final concentration of 1 mg/mL or 2 mg/mL for each compound. The drug formulation was administered to CD-1 mice via gavage at a dose of 10 mL/kg. Blood samples were collected from the submandibular vein or other suitable means at 15 min, 30 min, 1 h, 2 h, 4 h, 6 h, 8 h, and 24 h after administration. The blood samples were centrifuged at low temperature for 5 minutes, and the plasma was collected and stored at -80°C for analysis.
10 µL of plasma sample was taken, 200 µL of methanol containing an internal standard as a precipitant was added to precipitate plasma proteins, the compounds to be tested in the plasma was extracted, centrifuged at low temperature, and 10 µL of the supernatant was injected. The drug concentration in blood plasma was analyzed by LC-MS/MS. The pharmacokinetic parameters were calculated using Winnonlin based on the blood drug concentration data at different time points.

Compound | IC50 [1] [nM] | IC50 [2] [nM] | IC50 [3] [nM] | AUC(0-t) at 8 h (Pharmacokinetics in mice; plasma, 10 mg/kg) [ng·h/mL] | AUC(0-t) at 8 h (Pharmacokinetics in mice; in vivo, 20 mg/kg) [ng·h/mL] | AUC(0-t) at 8 h (Pharmacokinetics in mice; plasma, 20 mg/kg) [ng·h/mL]
CCc1cc2c(N3Cc4cc(C(=O)N(C)C)nn4CC[C@@H]3C)nc(OC[C@]3(C)CN(CC)CC[C@@H]3C(F)F)nc2c(F)c1-c1c(F)ccc2sc(N)c(C#N)c12 (single isomer, unassigned) [Example 176A] | 42.6 | < 1.5 | < 1.5 | – | – | –
CCN1CC/C(=C\F)[C@](C)(COc2nc(N3Cc4cc(C(=O)N(C)C)nn4CC[C@@H]3C)c3cc(Cl)c(-c4c(F)ccc5sc(N)c(C#N)c45)c(C)c3n2)C1 (single isomer, unassigned) [Example 178A] | – | 1.9 | < 1.5 | 1190 | – | –
CCN1CC/C(=C\F)[C@](C)(COc2nc(N3Cc4c(COC)c(C(=O)N(C)C)nn4CC[C@@H]3C)c3cc(Cl)c(-c4c(F)ccc5sc(N)c(C#N)c45)c(C)c3n2)C1 (single isomer, unassigned) [Example 229A] | – | 1.7 | < 1.5 | – | 4490 | –
CCN1CC/C(=C\F)[C@](C)(COc2nc(N3Cc4c(O)c(C(=O)N(C)C)nn4CC[C@@H]3C)c3cc(Cl)c(-c4c(F)ccc5sc(N)c(C#N)c45)c(F)c3n2)C1 (single isomer, unassigned) [Example 233A] | – | < 1.5 | < 1.5 | – | 822 | –
[2H]C([2H])([2H])N(C(=O)c1nn2c(c1COC)CN(c1nc(OC([2H])([2H])[C@]3(C)CN(CC)CC/C3=C\F)nc3c(F)c(-c4c(F)ccc5sc(N)c(C#N)c45)c(Cl)cc13)[C@@H](C)CC2)C([2H])([2H])[2H] (single isomer, unassigned) [Example 235A] | – | < 1.5 | < 1.5 | – | – | 2990
CCOc1c(C(=O)N(C)C)nn2c1CN(c1nc(OC[C@]3(C)CN(CC)CC/C3=C\F)nc3c(F)c(-c4c(F)ccc5sc(N)c(C#N)c45)c(Cl)cc13)[C@@H](C)CC2 (single isomer, unassigned) [Example 236A] | – | 2.7 | 1.5 | – | – | 2820
CCN1CC/C(=C\F)[C@](C)(COc2nc(N3Cc4c(COC)c(C(=O)N(C)C)nn4CC[C@@H]3C)c3cc(Cl)c(-c4c(F)cc(F)c5sc(N)c(C#N)c45)c(F)c3n2)C1 (single isomer, unassigned) [Example 237A] | – | < 1.5 | < 1.5 | – | – | 3910
CC[C@H]1CCn2nc(C(=O)N(C)C)c(COC)c2CN1c1nc(OC[C@]2(C)CN(CC)CC/C2=C\F)nc2c(F)c(-c3c(F)ccc4sc(N)c(C#N)c34)c(Cl)cc12 (single isomer, unassigned) [Example 240A] | – | 2.5 | < 1.5 | – | – | 2920
[2H]C([2H])([2H])N1CC[C@H](C(F)F)[C@](C)(COc2nc(N3CCOC[C@@](C)(O)C3)c3cc(C(F)(F)F)c(-c4ccc(F)c5sc(N)c(C#N)c45)c(F)c3n2)C1 [Example 55] | 40.7 | 13.1 | 2.4 | – | – | –
CN1CC/C(=C\F)[C@](C)(COc2nc(N3CCCn4nc(C(=O)N(C)C)c(Cl)c4C3)c3cc(C(F)(F)F)c(-c4cccc5sc(N)c(C#N)c45)c(F)c3n2)C1 [Example 124] | 23.9 | < 1.5 | 2.2 | – | – | –
CN1CC/C(=C\F)[C@](C)(COc2nc(N3CCCn4nc(C(=O)N(C)C)c(C#N)c4C3)c3cc(C(F)(F)F)c(-c4c(F)ccc5sc(N)c(C#N)c45)c(F)c3n2)C1 [Example 150] | 40.3 | < 1.5 | < 1.5 | – | – | –
CN1CC/C(=C\F)[C@](C)(COc2nc(N3CCCn4nc(C(=O)N(C)C)c(Cl)c4C3)c3cc(C(F)(F)F)c(-c4c(F)ccc5sc(N)c(C#N)c45)c(F)c3n2)C1 [Example 160] | 11.1 | < 1.5 | < 1.5 | – | – | –

Reference: patent EP4775577A1, “RAS INHIBITOR” (Tyligand Bioscience (Shanghai) Limited, priority 2023, dated 2025)
